*1 amine or outer side, *2 acyl side, *3 side chain or, on linkers, in order; H or OH if unused. Where a SMILES comes first, the peptide text is derived from it. The star is where a group is joined. pNA = O=[N+]([O-])c1ccc(N*)cc1; Suc = O=C(CCC(=O)[*:2])[*:1]
How the values were obtained:
[1] = target: Peptidyl-prolyl cis-trans isomerase A, cyclophilin A (Homo sapiens) (UniProt P62937); assay: The compound was evaluated for its binding affinity against Human Cyclophilin hCyp-18 Peptidyl-prolyl isomerase
[2] = target: Peptidyl-prolyl cis-trans isomerase A, cyclophilin A (Homo sapiens) (UniProt P62937); assay: Inhibitory activity against Human Cyclophilin hCyp-18 Peptidyl-prolyl isomerase by using the standard trypsin-coupled PPIase (peptidyl-prolyl isomerases) assay
[3] = target: Peptidyl-prolyl cis-trans isomerase A, cyclophilin A (Homo sapiens) (UniProt P62937); assay: The compound was evaluated for its binding affinity against Human Cyclophilin hCyp-18 Peptidyl-prolyl isomerase; remark: listed apart in the source

Peptidyl-prolyl cis-trans isomerase A, cyclophilin A (Homo sapiens), sequence (P62937 whole entry, looked up): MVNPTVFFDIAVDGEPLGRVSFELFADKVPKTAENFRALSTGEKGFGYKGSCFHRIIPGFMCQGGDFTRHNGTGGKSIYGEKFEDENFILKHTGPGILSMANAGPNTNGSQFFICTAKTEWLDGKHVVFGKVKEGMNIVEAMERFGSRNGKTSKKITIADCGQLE

Row | Kd [1] | IC50 [2] | Kd [3] | Structure (SMILES)
1 | 145 µM | 640 µM | – | CC(=O)N[C@@H](C)C(=O)N[C@@H](C)C(=O)N1CCC[C@H]1C(=O)N[C@@H](Cc1ccccc1)C(=O)Nc1ccc([N+](=O)[O-])cc1 [1-[2-(2-Acetylamino-propionylamino)-propionyl]-pyrrolidine-2-carboxylic acid [1-(4-nitro-phenylcarbamoyl)-2-phenyl-ethyl]-amide] (Ac-AAPF-pNA)
2 | 127 µM | 215 µM | – | CC(=O)N[C@@H](C)C(=O)NCC(=O)C(=O)N1CCCC1C(=O)N[C@@H](Cc1ccccc1)C(=O)Nc1ccc([N+](=O)[O-])cc1 (some centres not stated) [1-[3-(2-Acetylamino-propionylamino)-2-oxo-propionyl]-pyrrolidine-2-carboxylic acid [1-(4-nitro-phenylcarbamoyl)-2-phenyl-ethyl]-amide]
3 | 135 µM | 540 µM | – | C[C@H](NC(=O)CCC(=O)O)C(=O)N[C@@H](C)C(=O)N1CCC[C@H]1C(=O)N[C@@H](Cc1ccccc1)C(=O)Nc1ccc([N+](=O)[O-])cc1 [N-[1-(1-Methyl-2-{2-[1-(4-nitro-phenylcarbamoyl)-2-phenyl-ethylcarbamoyl]-pyrrolidin-1-yl}-2-oxo-ethylcarbamoyl)-ethyl]-succinamic acid] (Suc-AAPF-pNA)
4 | – | 1450 µM | 140 µM | C[C@H](NC(=O)CCC(=O)O)C(=O)NCC(=O)N1CCC[C@H]1C(=O)N[C@@H](Cc1ccccc1)C(=O)Nc1ccc([N+](=O)[O-])cc1 [N-[1-(2-{2-[1-(4-Nitro-phenylcarbamoyl)-2-phenyl-ethylcarbamoyl]-pyrrolidin-1-yl}-2-oxo-ethylcarbamoyl)-ethyl]-succinamic acid] (Suc-AGPF-pNA)
5 | 20 µM | 15 µM | – | CCOP(=O)(CNC(=O)[C@H](C)NC(=O)CCC(=O)O)N1CCCC1C(=O)N[C@@H](Cc1ccccc1)C(=O)Nc1ccc([N+](=O)[O-])cc1 (some centres not stated) [N-{1-[(Ethoxy-{2-[1-(4-nitro-phenylcarbamoyl)-2-phenyl-ethylcarbamoyl]-pyrrolidin-1-yl}-phosphinoylmethyl)-carbamoyl]-ethyl}-succinamic acid]
6 | 79 µM | – | – | COC(=O)Cc1ccc(NC(=O)[C@H](Cc2ccccc2)NC(=O)C2CCCN2P(=O)(O)CNC(=O)[C@H](C)NC(C)=O)cc1 (some centres not stated) [[(2-Acetylamino-propionylamino)-methyl]-{2-[1-(4-methoxycarbonylmethyl-phenylcarbamoyl)-2-phenyl-ethylcarbamoyl]-pyrrolidin-1-yl}-phosphinic acid anion]
7 | 200 µM | – | – | CCOP(=O)(CNC(=O)[C@H](C)NC(C)=O)N1CCCC1C(=O)N[C@H](CNc1ccc([N+](=O)[O-])cc1)Cc1ccccc1 (some centres not stated) [[(2-Acetylamino-propionylamino)-methyl]-{2-[1-benzyl-2-(4-nitro-phenylamino)-ethylcarbamoyl]-pyrrolidin-1-yl}-phosphinic acid ethyl ester]
